Read-outs that look alike come from different tables or passages of the source.
Key:
[1] = rodents; cited from earlier work
[2] = humans; cited from earlier work
[3] = test system: HT-29 cells; experiment: HT-29 cell death (MTT) with DNA damaging agents, alone or with […]; assay type: cell-based, human; settings: for apoptosis as relative cell death, low doses: 0.5 μg/mL DOX, CIS, 1 μg/mL 5-Fu, 0.6 μg/mL IRINO, 24 h pretreatment then 24 h drug alone or with TRAILPEG 1 μg/mL; for TRAIL-induced apoptosis, sub-lethal dose combined with TRAILPEG versus drug alone: DOX 2, 5-FU 10, CIS 2, IRINO 3 μg/mL
Protocol: A total of 1×10^4 cells were plated in 0.1 mL in 96-well flat bottom plates and incubated for 24 h before being exposed to various stimuli. After incubation for the indicated times, […] MTT solution was added to each well and incubated for 1 h. After removal of the medium, 200 μL of DMSO was added to each well to dissolve the formazan crystals. The absorbance at 540 nm was determined using a microplate reader (Bio-Tek Instruments, Inc, Winooski, Vt.). Triplicate wells were assayed for each condition.

[4] = test system: HT-29 cells; experiment: Western blotting of apoptosis markers in HT-29 cells; assay type: cell-based, human; settings: western blot
Text: (§1) Immunoblots were visualized by an enhanced chemiluminescence method.

[5] = test system: HT-29, MDA-MB-231, A549, PC3 cells; experiment: Cleaved PARP-1 western blot in TRAIL-resistant tumor cell lines; assay type: cell-based, human; settings: HT-29, MDA-MB-231, A549, PC3 (and HCT116 for the combination)
Text: (§3) Anti-caspase-8 (Cell Signaling Technology, Danvers, Mass., #9746), anti-cleaved PARP-1 (Cell Signaling Technology, #5625), anti-cleaved caspase-3 (Cell Signaling Technology, #9664), anti-cleaved caspase-9 (Cell Signaling Technology, #7237), anti-CD44 (Cell Signaling Technology, #5640), anti-p-JNK (Cell Signaling Technology, #4668), anti-p-p53 (Ser15 Cell Signaling Technology, #9284), anti-BCl-2 (Cell Signaling Technology, #2870), anti-p-BCL-2 (Cell Signaling Technology, #2875), anti-BCL-XL (Cell Signaling Technology, #2764), anti-DR4 (Abcam, Cambridge, Mass., #13890), anti-DR5 (Abcam, #47179), anti-c-Jun (Santa Cruz Biotechnology, Santa Cruz, Calif., sc-1694), or anti-β-actin (sc-47778) were used in the Western blot analysis. In generally, cells were lysed and sonicated briefly in ice-cold PBS buffer (1 mM PMSF, and 1 μg/ml each of aprotinin, leupeptin, and pepstatin A). Cell lysates were clarified by centrifugation, resolved by SDS-PAGE, and proteins on gels were transferred to nitrocellulose (Bio-Rad, Hercules, Calif.) using a semidry blotter (Bio-Rad). The membrane was blocked with 3% BSA in TBST (10 mM Tris-Cl, pH 8.0, 150 mM NaCl, 0.05% Tween-20) and incubated overnight at 4° C. with primary antibodies. Immunoblots were visualized by an enhanced chemiluminescence method.

[6] = test system: DR4; settings: HT-29 cells, DOX 24 h, qPCR
Protocol: (§2) Total cellular RNA was purified from HT-29 cells using Trizol reagent (Life Technology) and subjected to amplification with SuperScript One-Step RT-PCR system (Life Technology). Real-time PCR was carried out using a StepOne™ Real-Time PCR System according to the manufacturer instructions (Life Technology). The mean cycle threshold value (Ct) from triplicate samples was used to calculate the gene expression. β-actin was used as an internal control to normalize the variability in expression.

[7] = test system: DR5; settings: HT-29 cells, DOX 24 h, qPCR
Protocol: as §2

[8] = test system: DR5; experiment: Western blot of DR5 protein in HT-29 cells; assay type: cell-based, human; settings: DOX 2 μg/mL, regardless of TRAILPEG
Text: as §1

[9] = DOX distribution in HT-29 xenograft tumors; assay type: in vivo, mice; settings: HT-29 xenografts, single i.v. 7 mg/kg DOX-based
Protocol: Mice bearing HT-29 xenograft tumors were intravenously administered with DOX (7 mg/kg) and HAC/DOX (containing 7 mg/kg equivalent doxorubicin) when tumors reached 300 mm^3. At each selected time point, 3 mice in one group were euthanized by cervical dislocation. Whole blood was collected via cardiac puncture with a heparinized syringe. Tumors were dissected out and frozen at −70° C. immediately. Plasma samples were isolated from whole blood by centrifugation at 3000 g for 5 min. Tissues homogenates were prepared in 800 μL water using a Polytron homogenizer (Brinkman Instruments, Mississauga, Ontario, Canada), and then 200 μL of H2SO4 was added to the tissue homogenates. The solutions were then digested for 2 h at 60° C. After the vials cooled to room temperature, 100 μL of AgNO3 was added. Then the samples were centrifuged at 12,000 g for 10 min, and the supernatant was counted in a fluorospectrometer (RF-5301, Shimadzu) at an excitation wavelength of 500 nm and emission wavelength of 558 nm. The concentration of doxorubicin in each tissue was calculated based on a calibration curve. The calibration curve was linear over the 0.02 and 2.00 μg/mL range with a correlation coefficient of R^2=0.9993.

[10] = test system: Casp-8, Casp-3; experiment: Western blot of cleaved caspases in HT-29 tumors in vivo; design: species or system mice; settings: followed by TRAILPEG, HT-29 xenografts
Text: as §1

[11] = Survival of HT-29 xenograft mice during treatment; assay type: in vivo, BALB/c athymic mice; settings: high dose 7 mg/kg free DOX (with TRAILPEG), HT-29 xenografts
Protocol: The antitumor effects of […] after HAC/DOX sensitizing were investigated in HT-29 tumor bearing mice (n=5). Briefly, freshly harvested HT-29 cells (5×10^6 cells/mouse) were inoculated s.c. into BALB/c athymic mice. Treatment was initiated when the tumors reached a mean volume of 150 mm^3. Mice were treated with three rounds of DOX or HAC/DOX (7 mg/kg, i.v.) combined with […] (8 mg/kg, i.v.) for 10 days. The tumors were analyzed and calculated as described above. (n=5).

[12] = test system: DR4; settings: HT-29 cells, DOX 2 μg/mL
Text: as §3

## rhTRAIL: recombinant human tumor necrosis factor (TNF)-related apoptosis inducing ligand
[1]
  half-life in physiological conditions: 3-5 min
[2]
  half-life in physiological conditions: less than 30 minutes

## COc1cccc2c1C(=O)c1c(O)c3c(c(O)c1C2=O)C[C@@](O)(C(=O)CO)C[C@@H]3O[C@H]1C[C@H](N)[C@H](O)[C@H](C)O1 [DOX, doxorubicin]
[3]
  apoptosis as relative cell death, low doses: did not induce apoptosis
  TRAIL-induced apoptosis, sub-lethal dose combined with TRAILPEG versus drug alone: enhanced TRAIL-induced apoptosis was observed
[4]
  phosphorylation of p53 and activation of c-jun: led to the phosphorylation of p53 and the activation of c-jun
[5]
  cleaved PARP-1 expression: induced low levels of cleaved PARP-1
[6]
  DR4 mRNA levels: did not change
[7]
  increase of DR5 mRNA compared to untreated cells: 60%
[8]
  upregulation of DR5 expression at the protein level: 3 to 4 fold
[9]
  DOX concentration in tumor over time: gradually decreased with time
[10]; high dose 7 mg/kg DOX-based
  Casp-3 activation vs. control: 2 fold
[10]; low dose 2 mg/kg DOX-based
  Casp-3 activation vs. control: 2 fold
[11]
  mice died during the treatment cycle: 60%
[12]
  upregulation of DR4 expression at the protein level: not DR4

## CCc1c2c(nc3ccc(OC(=O)N4CCC(N5CCCCC5)CC4)cc13)-c1cc3c(c(=O)n1C2)COC(=O)[C@]3(O)CC [IRINO, irinotecan]
[3]
  apoptosis as relative cell death, low doses: did not induce apoptosis
  TRAIL-induced apoptosis, sub-lethal dose combined with TRAILPEG versus drug alone: enhanced TRAIL-induced apoptosis was observed

## Oc1c2ccccc2c2c3c(cccc13)N=N2 [SP600125]
[3]; SP600125 20 μM pre-treatment
  reduction of DOX and TRAILPEG-induced cell death: 35%

## O=c1[nH]cc(F)c(=O)[nH]1 [5-FU, 5-fluorouracil]
[3]
  apoptosis as relative cell death, low doses: did not induce apoptosis
  TRAIL-induced apoptosis, sub-lethal dose combined with TRAILPEG versus drug alone: enhanced TRAIL-induced apoptosis was observed
